Series [1] is described as follows: Antioxidant activity assessed as inhibition of hypoxanthine/xanthine oxidase-mediated ROS generation incubated for 5 min prior to xanthine oxidase addition measured every 4 secs for 100 secs by luminol-enhanced chemiluminescence analysis. Type of series: functional.
A short description of series [2]: (§1) Antioxidant activity in Homo sapiens (human) PMNC assessed as inhibition of fMLP-induced ROS generation incubated for 30 min prior to fMLP-induction measured every 4 secs for 100 secs by luminol-enhanced chemiluminescence analysis. Type of series: functional.
The species named for the next series is Homo sapiens. The description is as §1. In kind it is functional.
The target in series [3] is Xanthine dehydrogenase/oxidase (Homo sapiens, UniProt P47989). The series is described as follows: Inhibition of xanthine oxidase (unknown origin) using pterine as substrate assessed as rate of isoxantopterine formation by fluorimetric analysis (reference value: 3.25 +/- 0.25 umol/min).
A short description of series [4]: Antioxidant activity in Homo sapiens (human) PMNC assessed as inhibition of fMLP-induced ROS generation at 100 uM incubated for 30 min prior to fMLP-induction measured every 4 secs for 100 secs by luminol-enhanced chemiluminescence analysis. Type of series: functional.

Xanthine dehydrogenase/oxidase, sequence (P47989 whole entry): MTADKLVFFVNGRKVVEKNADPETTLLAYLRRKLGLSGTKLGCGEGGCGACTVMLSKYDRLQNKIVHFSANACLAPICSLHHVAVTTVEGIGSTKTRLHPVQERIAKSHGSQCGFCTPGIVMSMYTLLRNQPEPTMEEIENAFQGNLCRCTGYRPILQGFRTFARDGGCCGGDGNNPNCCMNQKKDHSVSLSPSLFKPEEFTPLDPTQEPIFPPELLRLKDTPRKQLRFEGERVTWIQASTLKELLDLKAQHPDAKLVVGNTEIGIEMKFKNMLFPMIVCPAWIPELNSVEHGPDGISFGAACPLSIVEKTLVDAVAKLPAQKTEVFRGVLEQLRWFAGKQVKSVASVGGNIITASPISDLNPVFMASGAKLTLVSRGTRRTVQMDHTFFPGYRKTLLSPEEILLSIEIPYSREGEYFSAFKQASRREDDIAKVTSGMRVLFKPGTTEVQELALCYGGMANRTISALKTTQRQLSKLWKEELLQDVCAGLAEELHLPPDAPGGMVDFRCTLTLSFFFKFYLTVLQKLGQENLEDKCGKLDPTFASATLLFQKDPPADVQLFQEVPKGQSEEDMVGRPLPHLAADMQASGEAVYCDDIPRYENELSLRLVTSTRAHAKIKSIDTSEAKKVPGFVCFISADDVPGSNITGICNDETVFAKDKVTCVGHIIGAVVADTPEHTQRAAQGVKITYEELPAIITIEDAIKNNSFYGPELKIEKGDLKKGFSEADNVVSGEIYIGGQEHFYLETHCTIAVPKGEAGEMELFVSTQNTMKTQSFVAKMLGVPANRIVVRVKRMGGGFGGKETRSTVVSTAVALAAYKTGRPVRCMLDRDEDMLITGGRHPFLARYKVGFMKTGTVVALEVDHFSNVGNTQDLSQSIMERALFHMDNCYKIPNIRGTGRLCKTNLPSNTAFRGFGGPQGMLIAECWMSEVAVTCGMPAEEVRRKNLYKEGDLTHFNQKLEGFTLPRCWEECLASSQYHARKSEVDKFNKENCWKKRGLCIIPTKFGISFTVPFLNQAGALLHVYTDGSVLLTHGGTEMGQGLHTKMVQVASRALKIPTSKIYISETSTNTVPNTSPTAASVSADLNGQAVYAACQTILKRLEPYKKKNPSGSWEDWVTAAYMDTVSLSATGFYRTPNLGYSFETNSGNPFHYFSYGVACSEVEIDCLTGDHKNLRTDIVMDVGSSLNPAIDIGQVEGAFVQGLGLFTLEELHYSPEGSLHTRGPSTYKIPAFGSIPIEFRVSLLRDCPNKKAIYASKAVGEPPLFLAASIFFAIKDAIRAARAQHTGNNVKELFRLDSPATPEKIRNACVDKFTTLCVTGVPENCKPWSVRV

In the case of `COc1cc2c(cc1O)C[C@H]1c3c(c(Br)c(O)c(OC)c3-2)CCN1C` [3-BROMOBOLDINE], the IC50 (commonly the concentration at which inhibition is half-maximal) in series [1] came to 0.55 µM; in series [2], 0.81 µM. Also, the inhibition entry (in series [1]; in the series filed under Homo sapiens) was “Dose-dependent effect” each time. Further, the Activity in series [3] was found to be 4.09 µmol/min.
In the case of `COc1cc2ccc3c(CC[N+](C)(C)C)c(Br)c(OC)c(OC)c3c2cc1OC.[I-]`, in series [1], the IC50 is 3.01 µM and the inhibition (usually how much of the control response was suppressed) was “Dose-dependent effect”. In addition, the inhibition at 100 µM in series [4] came out at 62%. The Activity in series [3] is 3.45 µmol/min.
For the molecule `CNCCc1c(Br)c(O)c(OC)c2c1ccc1cc(O)c(OC)cc12` [2-BROMOSECOBOLDINE], the IC50 in series [1] was 0.16 µM; in series [2], 0.64 µM. Moreover, the inhibition result (in series [1]; in the series filed under Homo sapiens) was “Dose-dependent effect” in each case. In series [3], the Activity stood at 2.82 µmol/min.
`COc1cc2c(ccc3c(CCN(C)C)c(Br)c(O)c(OC)c32)cc1O` [2-BROMO-N-METHYLSECOBOLDINE]: the IC50 in series [1] amounted to 0.19 µM; in series [2], 0.78 µM. Besides, the inhibition entry (in series [1]; in the series filed under Homo sapiens) was “Dose-dependent effect” throughout. Further, the Activity in series [3] stood at 3.98 µmol/min.
As to `O=C1O[C@H]([C@@H](O)CO)C(O)=C1O` [ASCORBIC ACID], the IC50 in series [2] came out at 168 µM.
On to `COc1cc2c(cc1O)C[C@H]1c3c(c(Br)c(O)c(OC)c3-2)CC[N+]1(C)C.[I-]` [3-BROMO-N-METHYLBOLDINE IODIDE], for which the half-maximal inhibitory concentration (IC50) amounted to 2 µM in series [1] and 1.27 µM in series [2]. The inhibition result (in series [1]; in the series listed under Homo sapiens) was “Dose-dependent effect” in each case. Also, the Activity in series [3] was 3.77 µmol/min.
As to `COc1cc2c(ccc3c(CC[N+](C)(C)C)c(Br)c(O)c(OC)c32)cc1O.[I-]`, the figures for the IC50 in series [1] and in series [2] were 2.11 µM and 0.74 µM, respectively. Also, the inhibition entry (in series [1]; in the series filed under Homo sapiens) was “Dose-dependent effect” in each case. For the same molecule, the Activity in series [3] was determined as 3.6 µmol/min.
